Source: patent publication US20080004270A1, “3,4-Disubstituted Pyrazoles as Cyclin Dependent Kinases (Cdk) or Aurora Kinase or Glycogen Synthase 3 (Gsk-3) Inhibitors” (ASTEX THERAPEUTICS LIMITED, priority 2004, published 2008)

Tests used:
[1] = target: T1, CDK1/CyclinB (Homo sapiens, UniProt P06493); experiment: Activated CDK1/CyclinB kinase inhibitory activity assay; assay type: biochemical; settings: histone H1 substrate, γ33P-ATP filter assay; read-out: IC50 against CDK1 activity
T1 construct: purchased Upstate Discovery
Experimental: (§1) Activated CDK2/CyclinA (Brown et al, Nat. Cell Biol., 1, pp 438-443, 1999; Lowe, E. D., et al Biochemistry, 41, pp 15625-15634, 2002) is diluted to 125 pM in 2.5× strength assay buffer (50 mM MOPS pH 7.2, 62.5 mM β-glycerophosphate, 12.5 mM EDTA, 37.5 mM MgCl2, […], 2.5 mM DTT, 2.5 mM sodium orthovanadate, 0.25 mg/ml bovine serum albumin), and 10 μl mixed with 10 μl of histone substrate mix (60 μl bovine histone H1 (Upstate Biotechnology, 5 mg/ml), 940 μl H2O, 35 μCi γ^33P-ATP) and added to 96 well plates along with 5 μl of various dilutions of the test compound in DMSO (up to 2.5%). The reaction is allowed to proceed for 2 to 4 hours before being stopped with an excess of ortho-phosphoric acid (5 μl at 2%).
(§2) γ^33P-ATP which remains unincorporated into the histone H1 is separated from phosphorylated histone H1 on a Millipore MAPH filter plate. The wells of the MAPH plate are wetted with 0.5% orthophosphoric acid, and then the results of the reaction are filtered with a Millipore vacuum filtration unit through the wells. Following filtration, the residue is washed twice with 200 μl of 0.5% orthophosphoric acid. Once the filters have dried, 20 μl of Microscint 20 scintillant is added, and then counted on a Packard Topcount for 30 seconds.
(§3) The % inhibition of the CDK2 activity is calculated and plotted in order to determine the concentration of test compound required to inhibit 50% of the CDK2 activity (IC50).
CDK1/CyclinB assay is identical to the CDK2/CyclinA above except that CDK1/CyclinB (Upstate Discovery) is used and the enzyme is diluted to 6.25 nM.

[2] = target: Activated CDK2/CyclinA (Homo sapiens, UniProt P24941); experiment: Activated CDK2/CyclinA kinase inhibitory activity assay; assay type: biochemical; settings: histone H1 substrate, γ33P-ATP filter assay; read-out: IC50 against CDK2 activity
Experimental: Compounds of the invention were tested for kinase inhibitory activity using the following protocol.
as §1, §2, §3

T1 sequence (P06493 whole entry): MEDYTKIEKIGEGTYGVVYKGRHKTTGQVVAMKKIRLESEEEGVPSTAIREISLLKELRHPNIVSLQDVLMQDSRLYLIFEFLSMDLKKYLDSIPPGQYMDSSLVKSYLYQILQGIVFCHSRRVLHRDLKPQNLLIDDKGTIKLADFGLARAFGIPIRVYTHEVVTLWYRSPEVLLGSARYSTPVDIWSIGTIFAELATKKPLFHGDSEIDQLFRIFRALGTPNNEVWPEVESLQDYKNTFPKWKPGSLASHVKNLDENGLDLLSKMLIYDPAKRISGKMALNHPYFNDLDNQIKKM
T1 sequence (P14635 whole entry partner): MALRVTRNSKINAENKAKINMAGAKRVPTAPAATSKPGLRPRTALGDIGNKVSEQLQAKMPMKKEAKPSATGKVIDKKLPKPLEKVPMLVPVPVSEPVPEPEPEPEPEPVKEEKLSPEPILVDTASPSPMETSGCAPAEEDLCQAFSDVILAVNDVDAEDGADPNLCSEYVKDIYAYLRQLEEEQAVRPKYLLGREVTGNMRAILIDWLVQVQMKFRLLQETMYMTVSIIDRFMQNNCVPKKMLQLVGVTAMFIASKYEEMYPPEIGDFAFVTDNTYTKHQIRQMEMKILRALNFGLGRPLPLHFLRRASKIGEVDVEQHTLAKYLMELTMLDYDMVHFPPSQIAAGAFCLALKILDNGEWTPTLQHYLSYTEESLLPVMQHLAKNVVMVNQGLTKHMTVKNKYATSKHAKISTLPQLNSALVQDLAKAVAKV

| SMILES | IC50 [1] [µM] | IC50 [2] [µM] |
| --- | --- | --- |
| O=C(Nc1c[nH]nc1-c1nc2cc[nH]c(=O)c2[nH]1)c1c(F)cccc1F [Example 1, 2,6-difluoro-N-[3-(4-oxo-4,5-dihydro-3H-imidazo[4,5-c]pyridin-2-yl)-1H-pyrazol-4-yl]-benzamide] | < 1 | < 1 |
| O=C(Nc1c[nH]nc1-c1nc2c([nH]1)CCNC2)c1c(F)cccc1F [Example 4, 2,6-difluoro-N-[3-(4,5,6,7-tetrahydro-1H-imidazol[4,5-c]pyridin-2-yl)-1H-pyrazol-4-yl]-benzamide] | < 1 | < 1 |
| CCN1CCc2[nH]c(-c3n[nH]cc3NC(=O)c3c(F)cccc3F)nc2C1 [Example 6, N-[3-(5-ethyl-4,5,6,7-tetrahydro-1H-imidazo[4,5-c]pyridine-2-yl)-1H-pyrazol-4-yl]-2,6-difluoro-benzamide] | < 1 | < 1 |
| O=C(Nc1c[nH]nc1-c1nc2c([nH]1)CCN(CCF)C2)c1c(F)cccc1F [Example 7, 2,6-difluoro-N-{3-[5-(2-fluoro-ethyl)-4,5,6,7-tetrahydro-1H-imidazol[4,5-c]pyridine-2-yl]-1H-pyrazol-4-yl}-benzamide] | < 1 | < 1 |
